Assay results reported in ChEMBL document CHEMBL2218064, “Structure-activity relationship data for chemical series of antagonists of the P2X7 receptor (Supplementary Bioactivity Data for publication CHEMBL1157114)”.

target: T1, P2X purinoceptor 7 (Homo sapiens, UniProt Q99572); assay: SUPPLEMENTARY: Inhibition of human P2X7 receptor assessed as inhibition of ethidium bromide accumulation. Same assay as CHEMBL1103860
T1 sequence (Q99572 whole entry): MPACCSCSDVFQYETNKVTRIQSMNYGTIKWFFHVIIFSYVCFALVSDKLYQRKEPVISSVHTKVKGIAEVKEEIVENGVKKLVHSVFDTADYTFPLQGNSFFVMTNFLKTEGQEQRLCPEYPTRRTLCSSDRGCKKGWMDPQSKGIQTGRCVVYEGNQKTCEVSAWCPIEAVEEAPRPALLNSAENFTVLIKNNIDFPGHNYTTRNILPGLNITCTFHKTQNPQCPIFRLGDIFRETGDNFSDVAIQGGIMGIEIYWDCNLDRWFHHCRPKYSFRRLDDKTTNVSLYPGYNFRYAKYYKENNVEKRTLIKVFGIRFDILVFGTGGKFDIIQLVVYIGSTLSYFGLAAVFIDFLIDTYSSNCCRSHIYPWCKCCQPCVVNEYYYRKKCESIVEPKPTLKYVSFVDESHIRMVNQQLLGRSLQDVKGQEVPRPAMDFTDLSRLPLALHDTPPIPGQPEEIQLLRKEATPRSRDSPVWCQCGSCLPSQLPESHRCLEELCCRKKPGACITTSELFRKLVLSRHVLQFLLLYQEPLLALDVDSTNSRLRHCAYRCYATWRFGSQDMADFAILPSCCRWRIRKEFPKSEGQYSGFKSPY

Row | SMILES | IC50
1 | Cc1ccccc1N1CCN(C(=O)c2ccc(F)cc2Cl)CC1=O | 501 nM
2 | CCN1C(=O)CC[C@H]1C(=O)NCc1c(F)cccc1Cl | 1000 nM
3 | CC(C)(C)c1cn2c(n1)CN(C(=O)c1cccc(C(F)(F)F)c1Cl)CC2 | 631 nM
4 | O=C(Cc1cn(CCNCCO)nc1C(F)(F)F)NCc1ccc(F)cc1Cl | 631 nM
5 | CN1C(=O)N(c2ccc(F)nc2)C[C@H]1C(=O)NCc1cccc(C(F)(F)F)c1Cl | 7.94 nM
6 | CCN1C(=O)c2ccccc2C1C(=O)NCc1cccc(C(F)(F)F)c1Cl (centres undefined) | 79.4 nM
7 | O=C(Cc1cn(CCO)nc1C(F)(F)F)NCc1ccc(F)cc1Cl | 398 nM
8 | CCN1[C@H](C(=O)NCc2ccc(F)c(F)c2F)CCCS1(=O)=O | 631 nM
9 | O=C(Cc1cnn(CCN2CCCCC2)c1C(F)(F)F)NCc1ccc(F)cc1Cl | 794 nM
10 | Cc1ccc(N2CCC(O)C2)cc1N1CCN(C(=O)c2cccc(C(F)(F)F)c2Cl)CC1=O (centres undefined) | 10 nM
11 | O=C(NCc1ccc(F)cc1Cl)C1CCC(=O)N1C1CC1 (centres undefined) | 20 nM
12 | Cc1cccc(C)c1N1CCN(Cc2ccc(Cl)cc2Cl)C(=O)C1=O | 1.58 nM
13 | O=C1C(=O)N(c2ccccc2N2CCOCC2)CCN1Cc1ccc(F)cc1Cl | 126 nM
14 | O=C(c1cccc(C(F)(F)F)c1Cl)N1CCN(c2cccc3ccccc23)C(=O)C1 | 12.6 nM
15 | Cn1nccc1CC(=O)NCc1ccc(F)c(F)c1Cl | 158 nM
16 | CN1C[C@@H](C(=O)NCc2ccc(F)c(F)c2F)N(C)C1=O | 31.6 nM
17 | Cc1cccc(C)c1N1CCN(Cc2cccc(Cl)c2Cl)C(=O)C1=O | 6.31 nM
18 | O=C(c1cccc(C(F)(F)F)c1Cl)N1CCn2c(nnc2-c2ccncn2)C1 | 12.6 nM
19 | O=C1CN(C(=O)c2cccc(C(F)(F)F)c2Cl)CCN1CC1CCCCC1 | 79.4 nM
20 | CN1C(=O)N(c2ccccn2)C[C@H]1C(=O)NCc1ccc(F)cc1Cl | 79.4 nM
21 | CN(C)c1ccccc1N1CCN(Cc2ccc(F)cc2Cl)C(=O)C1=O | 63.1 nM
22 | O=C(c1ccc(F)cc1C(F)(F)F)N1CCn2c(nnc2-c2ccccn2)C1 | 31.6 nM

Row | SMILES | IC50
23 | Cc1nn(-c2ccccc2)c(C)c1CC(=O)NCc1cc(Cl)ccc1F | 631 nM
24 | Cn1cccc1-c1nnc2n1CCN(C(=O)c1cccc(C(F)(F)F)c1Cl)C2 | 6.31 nM
25 | Cn1ncc(F)c1CC(=O)NCc1ccc(F)c(F)c1Cl | 100 nM
26 | Cc1nn(-c2ccccc2)c(C)c1CC(=O)NCc1c(F)cccc1Cl | 316 nM
27 | Cc1c(OCCN2CCOCC2)cccc1N1CCN(Cc2ccc(F)cc2Cl)C(=O)C1=O | 100 nM
28 | Cc1nnc2n1CCN(C(=O)c1cccc(C(F)(F)F)c1Cl)C2 | 31.6 nM
29 | Cc1cn2c(n1)CN(C(=O)c1cccc(C(F)(F)F)c1Cl)CC2 | 126 nM
30 | CCN1C(=O)CC[C@@H]1C(=O)NCc1ccc(F)c(F)c1Cl | 200 nM
31 | CC(C)(C)CN1C(=O)CC[C@H]1C(=O)NCc1cccc(C(F)(F)F)c1Cl | 25.1 nM
32 | Cc1cc(C)cc(N2CCN(Cc3ccc(F)cc3Cl)C(=O)C2=O)c1 | 1000 nM
33 | CCN1[C@H](C(=O)NCc2ccc(F)cc2Cl)CCCS1(=O)=O | 631 nM
34 | Cc1cnn(CC(F)(F)F)c1CC(=O)NCc1ccc(F)c(F)c1Cl | 50.1 nM
35 | O=C(c1cccc(C(F)(F)F)c1Cl)N1CCn2c(nnc2-c2ccccc2)C1 | 3.16 nM
36 | O=C(c1c(F)ccc(F)c1Cl)N1CCN(c2ccc(F)cc2Cl)C(=O)C1 | 631 nM
37 | Cc1nn(C2CCN(Cc3ccccc3)CC2)c(C)c1CC(=O)NCc1ccc(F)cc1Cl | 63.1 nM
38 | O=C1C(=O)N(c2cc(F)ccc2F)CCN1Cc1ccc(F)cc1Cl | 158 nM
39 | CCN1C(=O)CC[C@H]1C(=O)NCc1cccc(C)c1C | 100 nM
40 | Cc1c(CNC(=O)[C@@H]2CN(C)C(=O)N2C)cccc1C(F)(F)F | 1.26 nM
41 | Cc1cc(-c2nnc3n2CCN(C(=O)c2cccc(Cl)c2Cl)C3)no1 | 25.1 nM
42 | O=C1C(=O)N(c2ccccc2N2CCCC2)CCN1Cc1ccc(F)cc1Cl | 39.8 nM
43 | C[C@@H]1CC(=O)N(C)[C@@H]1C(=O)NCc1cccc(C(F)(F)F)c1Cl | 15.8 nM
44 | CN1C(=O)N(CC(F)F)C[C@H]1C(=O)NCc1ccc(Cl)cc1Cl | 2.51 nM
